Laboratory results from patent US20200231638A1, “STABILIZED ANTI-MICROBIAL PEPTIDES” (priority 2015, published 2020).
Converted amounts (≈) assume the structure as drawn. Bridge positions count the residues as written; N and C are the ends. Square brackets hold non-standard residues; d marks the D form. Ends that are not written are not given here. Peptide text beside a SMILES is read from it. R8 = C=CCCCCCC[C@@](C)(N)C(=O)O; S5 = C=CCCC[C@](C)(N)C(=O)O; Nle = CCCC[C@H](N)C(=O)O

What was measured:
E. coli = assay type: cell-based, Escherichia coli
Summary of the method: (§1)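 Broth microdilution in anion-exchange-refined Mueller-Hinton broth; serially diluted peptide mixed with bacteria at 5×10^5 CFU/ml final inoculum. Incubated 20-24 hours at 37° C. MIC taken as lowest peptide concentration with no visible growth.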

S. marcescens = assay type: cell-based
Procedure: Antimicrobial Activity Assay:
The following microbroth dilution protocol was adapted to determine the minimum inhibitory concentration (MIC) of each peptide. First, Mueller-Hinton broth (MHB) was passed through an anion exchange column to remove polyanionic species and generate refined MHB. […] Briefly, bacterial cells was grown overnight in refined MHB at 37° C. and then diluted and allowed to grow again for several hours. Serial dilutions of peptide stocks in water (10 μl) were prepared using clear round-bottom polypropylene 96-well plates. Then 90 μl of bacteria in refined MHB was added to give a final inoculum of 5×10^5 CFU/ml. The plates were then covered with porous tape to reduce evaporation, and incubated for 20-24 hours at 37° C. The MIC is the minimum peptide concentration at which no visible growth was observed.

B. cereus = assay type: cell-based, Bacillus cereus
Summary of the method: as §1

[1] = Circular dichroism spectroscopy (α-helicity); assay type: physicochemical; settings: for α-helicity by CD in water, absence of TFE: aqueous solution, no TFE
Procedure: To determine the helicity of the panel of stapled magainin II analogues, the peptides were dissolved in water using CD spectroscopy in the presence and absence of trifluoroethanol (TFE; 50% v/v), a helix-promoting solvent. […] Levels of helicity ranged from approximately 34% for MagStap 2 to 100% for MagStap 1 and 3, as compared to an idealized α-helical peptide. […] When the helicity in the presence of TFE was measured, most of the stapled analogues were 50-60% helical except for MagStap 3, which retained 100% α-helical content.
Circular Dichroism Spectroscopy:
Compounds were dissolved in an aqueous solution (e.g. 5 mM potassium phosphate solution at pH 7, or distilled H2O, to concentrations of 25-50 μM). Circular dichroism (CD) spectra were obtained on a spectropolarimeter (Aviv) using standard measurement parameters (e.g., temperature, 37° C.; wavelength, 190-260 nm; step resolution, 0.5 nm; speed, 20 nm/sec; accumulations, 10; response, 1 sec; bandwidth, 1 nm; path length, 0.1 cm). The α-helical content of each peptide was calculated by dividing the mean residue ellipticity by the reported value for a model helical decapeptide (see, e.g., Yang et al., Meth Enzymol. 130:208 (1986)).

human red blood cells = assay type: cell-based
Summary of the method: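 Washed human RBCs as 1% (v/v) suspension in phosphate-buffered saline incubated 1 h at 37° C with serially diluted peptides. Hemoglobin release in supernatant measured spectrophotometrically (570 nm), % hemolysis relative to untreated and 1% Triton-X100 controls; MHC defined as concentration giving less than 1% release.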

S. aureus = assay type: cell-based, Staphylococcus aureus
Summary of the method: as §1

P. aeruginosa = assay type: cell-based, Pseudomonas aeruginosa
Summary of the method: as §1

| Compound | MIC E. coli (E. coli) [µg/mL] | MIC S. marcescens (S. marcescens) [µg/mL] | MIC B. cereus (B. cereus) [µg/mL] | α-helicity by CD in water, absence of TFE [1] [%] | hemolytic activity (in words) (human red blood cells) | MIC S. aureus (S. aureus) [µg/mL] | MIC P. aeruginosa (P. aeruginosa) [µg/mL] | α-helicity by CD in the presence of TFE ([1]; TFE 50% v/v) [%] |
| --- | --- | --- | --- | --- | --- | --- | --- | --- |
| CCCC[C@H](NC(=O)[C@@H](NC(=O)[C@H](CCC(=O)O)NC(=O)[C@H](C)NC(=O)[C@@H](NC(=O)[C@H](Cc1ccccc1)NC(=O)[C@H](C)NC(=O)[C@]1(C)CCCC=CCCCCCC[C@@](C)(NC(=O)[C@H](CC(C)C)NC(=O)[C@H](Cc2ccccc2)NC(=O)[C@H](CCCCN)NC(=O)CNC(=O)[C@@H](NC(=O)CN)[C@@H](C)CC)C(=O)N[C@@H](C)C(=O)N[C@@H](C)C(=O)N[C@@H](CCCCN)C(=O)N[C@@H](CCCCN)C(=O)N[C@@H](Cc2ccccc2)C(=O)N[C@@H](C)C(=O)N1)C(C)C)[C@@H](C)CC)C(=O)N[C@@H](CC(N)=O)C(=O)N[C@@H](CO)C(N)=O [MagStap 1] (H-GIGKFL[R8]AAKKFA[S5]AFVAEI[Nle]NS-NH2; staple 7-14; N-terminus assumed) | 12.5 (≈ 5.03 µM) | >50 | 12.5 (≈ 5.03 µM) | 100 | – | – | – | – |
| CCCC[C@H](NC(=O)[C@@H](NC(=O)[C@H](CCC(=O)O)NC(=O)[C@H](C)NC(=O)[C@]1(C)CCCC=CCCCCCC[C@@](C)(NC(=O)[C@H](C)NC(=O)[C@H](C)NC(=O)[C@H](Cc2c[nH]cn2)NC(=O)[C@H](CC(C)C)NC(=O)[C@H](Cc2ccccc2)NC(=O)[C@H](CCCCN)NC(=O)CNC(=O)[C@@H](NC(=O)CN)[C@@H](C)CC)C(=O)N[C@@H](CCCCN)C(=O)N[C@@H](Cc2ccccc2)C(=O)N[C@@H](C)C(=O)N[C@@H](CCCCN)C(=O)N[C@@H](C)C(=O)N[C@@H](Cc2ccccc2)C(=O)N1)[C@@H](C)CC)C(=O)N[C@@H](CC(N)=O)C(=O)N[C@@H](CO)C(N)=O [MagStap 4] (H-GIGKFLHAA[R8]KFAKAF[S5]AEI[Nle]NS-NH2; staple 10-17; N-terminus assumed) | 12.5 (≈ 4.95 µM) | >50 | 6.2 (≈ 2.46 µM) | – | highest hemolytic activity | – | – | – |
| CC[C@H](C)[C@H](NC(=O)CN)C(=O)NCC(=O)N[C@@H](CCCCN)C(=O)N[C@@H](Cc1ccccc1)C(=O)N[C@@H](CC(C)C)C(=O)N[C@@H](CCCCN)C(=O)N[C@@H](CCCCN)C(=O)N[C@@H](C)C(=O)N[C@@H](CCCCN)C(=O)N[C@@H](CCCCN)C(=O)N[C@]1(C)CCCCCCC=CCCC[C@@](C)(C(=O)N[C@@H](CC(C)C)C(=O)N[C@@H](CCCCN)C(=O)N[C@@H](CCCCN)C(N)=O)NC(=O)[C@H](CCCCN)NC(=O)[C@H](C(C)C)NC(=O)[C@H](Cc2ccccc2)NC(=O)[C@H](C)NC(=O)[C@H](CCCCN)NC(=O)CNC1=O [PexStap 6] (H-GIGKFLKKAKK[R8]GKAFVK[S5]LKK-NH2; staple 12-19; N-terminus assumed) | 3.1 (≈ 1.24 µM) | >50 | 6.3 (≈ 2.51 µM) | – | – | 3.1 (≈ 1.24 µM) | 1.6 (≈ 0.638 µM) | – |
| CC[C@H](C)[C@H](NC(=O)CN)C(=O)NCC(=O)N[C@@H](CCCCN)C(=O)N[C@@H](Cc1ccccc1)C(=O)N[C@@H](CC(C)C)C(=O)N[C@@H](CCCCN)C(=O)N[C@@H](CCCCN)C(=O)N[C@@H](C)C(=O)N[C@@H](CCCCN)C(=O)N[C@]1(C)CCCCCCC(O)C(O)CCC[C@@](C)(C(=O)N[C@H](C(=O)N[C@@H](CC(C)C)C(=O)N[C@@H](CCCCN)C(=O)N[C@@H](CCCCN)C(N)=O)[C@@H](C)CC)NC(=O)[C@H](C(C)C)NC(=O)[C@H](Cc2ccccc2)NC(=O)[C@H](C)NC(=O)[C@H](CCCCN)NC(=O)CNC(=O)[C@H](Cc2ccccc2)NC1=O (stereo partly drawn) [PexDiol 5] | 1.6 (≈ 0.628 µM) | >50 | 3.1 (≈ 1.22 µM) | – | significant hemolytic activity | 3.1 (≈ 1.22 µM) | 1.6 (≈ 0.628 µM) | – |
| CCCC[C@H](NC(=O)[C@@H](NC(=O)[C@H](CCC(=O)O)NC(=O)[C@H](C)NC(=O)[C@@H](NC(=O)[C@]1(C)CCCC=CCCCCCC[C@@](C)(NC(=O)[C@H](C)NC(=O)[C@H](Cc2c[nH]cn2)NC(=O)[C@H](CC(C)C)NC(=O)[C@H](Cc2ccccc2)NC(=O)[C@H](CCCCN)NC(=O)CNC(=O)[C@@H](NC(=O)CN)[C@@H](C)CC)C(=O)N[C@@H](CCCCN)C(=O)N[C@@H](CCCCN)C(=O)N[C@@H](Cc2ccccc2)C(=O)N[C@@H](C)C(=O)N[C@@H](CCCCN)C(=O)N[C@@H](C)C(=O)N1)C(C)C)[C@@H](C)CC)C(=O)N[C@@H](CC(N)=O)C(=O)N[C@@H](CO)C(N)=O [MagStap 3] (H-GIGKFLHA[R8]KKFAKA[S5]VAEI[Nle]NS-NH2; staple 9-16; N-terminus assumed) | 3.1 (≈ 1.22 µM) | >50 | 6.2 (≈ 2.45 µM) | 100 | – | – | – | 100 |
| GIGKFLKKAKKFGKAFVKILKK-NH2 [Pexiganan, reference compound] | 3.3 | >50 | 3.1 | – | no hemolysis | 6.3 | 1.6 | – |
| CCCC[C@H](NC(=O)[C@@H](NC(=O)[C@H](CCC(=O)O)NC(=O)[C@]1(C)CCCC=CCCCCCC[C@@](C)(NC(=O)[C@H](CCCCN)NC(=O)[C@H](C)NC(=O)[C@H](C)NC(=O)[C@H](Cc2c[nH]cn2)NC(=O)[C@H](CC(C)C)NC(=O)[C@H](Cc2ccccc2)NC(=O)[C@H](CCCCN)NC(=O)CNC(=O)[C@@H](NC(=O)CN)[C@@H](C)CC)C(=O)N[C@@H](Cc2ccccc2)C(=O)N[C@@H](C)C(=O)N[C@@H](CCCCN)C(=O)N[C@@H](C)C(=O)N[C@@H](Cc2ccccc2)C(=O)N[C@@H](C(C)C)C(=O)N1)[C@@H](C)CC)C(=O)N[C@@H](CC(N)=O)C(=O)N[C@@H](CO)C(N)=O [MagStap 5] (H-GIGKFLHAAK[R8]FAKAFV[S5]EI[Nle]NS-NH2; staple 11-18; N-terminus assumed) | 12.5 (≈ 4.9 µM) | >50 | 12.5 (≈ 4.9 µM) | – | lowest hemolytic activity | – | – | – |
| CC[C@H](C)[C@H](NC(=O)CN)C(=O)NCC(=O)N[C@@H](CCCCN)C(=O)N[C@@H](Cc1ccccc1)C(=O)N[C@@H](CC(C)C)C(=O)N[C@@H](CCCCN)C(=O)N[C@]1(C)CCCCCCC=CCCC[C@@](C)(C(=O)N[C@@H](Cc2ccccc2)C(=O)N[C@H](C(=O)N[C@@H](CCCCN)C(=O)N[C@H](C(=O)N[C@@H](CC(C)C)C(=O)N[C@@H](CCCCN)C(=O)N[C@@H](CCCCN)C(N)=O)[C@@H](C)CC)C(C)C)NC(=O)[C@H](CCCCN)NC(=O)CNC(=O)[C@H](Cc2ccccc2)NC(=O)[C@H](CCCCN)NC(=O)[C@H](CCCCN)NC(=O)[C@H](C)NC1=O [PexStap 2] (H-GIGKFLK[R8]AKKFGK[S5]FVKILKK-NH2; staple 8-15; N-terminus assumed) | 3.1 (≈ 1.21 µM) | >50 | 3.1 (≈ 1.21 µM) | – | – | 3.1 (≈ 1.21 µM) | 3.1 (≈ 1.21 µM) | – |
| CCCC[C@H](NC(=O)[C@]1(C)CCCC=CCCCCCC[C@@](C)(NC(=O)[C@H](Cc2ccccc2)NC(=O)[C@H](CCCCN)NC(=O)[C@H](CCCCN)NC(=O)[C@H](C)NC(=O)[C@H](C)NC(=O)[C@H](Cc2c[nH]cn2)NC(=O)[C@H](CC(C)C)NC(=O)[C@H](Cc2ccccc2)NC(=O)[C@H](CCCCN)NC(=O)CNC(=O)[C@@H](NC(=O)CN)[C@@H](C)CC)C(=O)N[C@@H](CCCCN)C(=O)N[C@@H](C)C(=O)N[C@@H](Cc2ccccc2)C(=O)N[C@@H](C(C)C)C(=O)N[C@@H](C)C(=O)N[C@@H](CCC(=O)O)C(=O)N1)C(=O)N[C@@H](CC(N)=O)C(=O)N[C@@H](CO)C(N)=O [MagStap 7] (H-GIGKFLHAAKKF[R8]KAFVAE[S5][Nle]NS-NH2; staple 13-20; N-terminus assumed) | 6.2 (≈ 2.41 µM) | >50 | 6.2 (≈ 2.41 µM) | – | – | – | – | – |
